Structures are written as SMILES.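 The compound was tested at five concentrations on cells cultured in 96-well plates, with a 48-hour exposure period. TGI: concentration producing complete growth inhibition.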

Some test systems named below: KM12 colon; COLO 205 colon; BT-549 breast; UACC-257 melanoma; IGROV1 ovarian; HOP-62 NSCLC; SR leukemia; LOX IMVI melanoma; UACC-62 melanoma; SK-OV-3 ovarian; TK-10 renal; T-47D breast; MALME-3M melanoma.
What all share (assay): DTP human tumour cell line panel, 48 h

`C[C@]12CC[C@H]3[C@@H](CC=C4C[C@@H](N5CCCC5)CC[C@@]43C)[C@@H]1C/C(=C\c1ccc([N+](=O)[O-])cc1)[C@@H]2O`: the TGI in the test with KM12 colon is 33.2 µM; with COLO 205 colon, 32.6 µM; in the test with BT-549 breast it was 26.7 µM; in the test with UACC-257 melanoma it was 31.5 µM; in the test with IGROV1 ovarian, 28.2 µM; in the test with HOP-62 NSCLC it was 32 µM. Further, the TGI in the test with SR leukemia turned out to be 3.98 µM; in the test on LOX IMVI melanoma it was 30.9 µM; with UACC-62 melanoma, 29.3 µM; in the test with SK-OV-3 ovarian, 30.1 µM; in the test with TK-10 renal, 35.8 µM; with T-47D breast, 46.9 µM. The same compound gave a TGI in the test with MALME-3M melanoma of 32.1 µM.

Consider `CCCCOC(=O)Nc1ccc(S(=O)(=O)Nc2c(Cl)cccc2Cl)cc1`, for which the TGI is 99.4 µM in the test on KM12 colon; 34.3 µM in the test with COLO 205 colon; 60.7 µM with BT-549 breast; more than 100 µM in the test on UACC-257 melanoma; 79.5 µM with IGROV1 ovarian; more than 100 µM with HOP-62 NSCLC. The TGI in the test on SR leukemia is 48.7 µM; with LOX IMVI melanoma, more than 100 µM; in the test on UACC-62 melanoma it was 54.6 µM; with SK-OV-3 ovarian it was 75.3 µM; with TK-10 renal, 77.9 µM; in the test on T-47D breast it was 83.8 µM. The compound also registered a TGI with MALME-3M melanoma of 62.7 µM.

Take `O=C1O/C(=C(\Br)c2ccc([N+](=O)[O-])cc2)c2ccccc21`: the TGI in the test with KM12 colon, in the test on COLO 205 colon, in the test with BT-549 breast, with UACC-257 melanoma, with IGROV1 ovarian and in the test with HOP-62 NSCLC was more than 100 µM each time. In addition, the TGI is more than 71.4 µM with SR leukemia; more than 100 µM with LOX IMVI melanoma; more than 100 µM with UACC-62 melanoma; more than 100 µM with SK-OV-3 ovarian; more than 100 µM in the test with TK-10 renal; more than 100 µM in the test on T-47D breast. For the same compound, the TGI in the test with MALME-3M melanoma is more than 100 µM.

Take `N#C/C=C(/NC(=O)Nc1ccccc1)N1CCCC1`: the TGI is more than 100 µM in the test with KM12 colon; more than 100 µM with COLO 205 colon; more than 100 µM in the test with BT-549 breast; more than 100 µM in the test on UACC-257 melanoma; more than 76.3 µM in the test on IGROV1 ovarian; more than 35.8 µM with HOP-62 NSCLC. In addition, the TGI in the test on SR leukemia was more than 100 µM; in the test with LOX IMVI melanoma, 97.4 µM; in the test on UACC-62 melanoma, more than 100 µM; with SK-OV-3 ovarian, more than 100 µM; in the test on TK-10 renal, more than 55.4 µM; in the test on T-47D breast, more than 100 µM. In the test on MALME-3M melanoma, this compound displayed a TGI of more than 66.9 µM.

Turning to `CCCCCCc1cc2cc(C(=O)Nc3nc(C45CC6CC(CC(C6)C4)C5)cs3)c(=O)oc2cc1O`, the TGI worked out at 32.6 µM in the test on KM12 colon; 32.6 µM in the test with COLO 205 colon; 61 µM in the test on BT-549 breast; 68 µM in the test with UACC-257 melanoma; 46.9 µM in the test with IGROV1 ovarian; 37.6 µM in the test on HOP-62 NSCLC. The TGI was found to be 26.4 µM in the test on SR leukemia; 30.9 µM with LOX IMVI melanoma; 25.4 µM with UACC-62 melanoma; 49 µM in the test with SK-OV-3 ovarian; 34.2 µM in the test with TK-10 renal; 38.1 µM in the test on T-47D breast. Moreover, the TGI in the test with MALME-3M melanoma amounted to 51.1 µM.

For `O=C(CSc1nc2ccccc2c(=O)n1-c1ccccc1)N=Nc1c(O)[nH]c2ccc(Br)cc12`, the TGI was 14 µM in the test on KM12 colon; more than 35.6 µM with COLO 205 colon; more than 59.6 µM in the test with BT-549 breast; 52 µM in the test on UACC-257 melanoma; 5.03 µM in the test with IGROV1 ovarian; 7.07 µM in the test with HOP-62 NSCLC. Further, the TGI in the test with SR leukemia was more than 26.6 µM; in the test with LOX IMVI melanoma, more than 31.5 µM; in the test with UACC-62 melanoma, 25.9 µM; with SK-OV-3 ovarian it was 13.1 µM; with TK-10 renal, 12.4 µM; in the test with T-47D breast it was 28.6 µM. For the same compound, the TGI with MALME-3M melanoma was 5.74 µM.

For `CN(C(=O)Cc1cc(Cl)c(Cl)cc1NC(=O)CCCN)[C@H]1CCCC[C@@H]1N1CCCC1`, the TGI in the test with KM12 colon was 36.7 µM; in the test on COLO 205 colon, 35 µM; in the test on BT-549 breast, more than 100 µM; in the test on UACC-257 melanoma it was 33.3 µM; in the test with IGROV1 ovarian, more than 100 µM; with HOP-62 NSCLC it was more than 100 µM. Further, the TGI in the test on SR leukemia was more than 100 µM; in the test on LOX IMVI melanoma it was 39.3 µM; in the test with UACC-62 melanoma it was 40.4 µM; in the test with SK-OV-3 ovarian, more than 100 µM; with TK-10 renal, more than 100 µM; in the test with T-47D breast it was more than 100 µM. In the test with MALME-3M melanoma, this compound registered a TGI of 31.1 µM.

For `COC(=O)/C(=C(/C)c1ccco1)P(=O)(OC)OC`, the TGI in the test on KM12 colon, in the test with COLO 205 colon, in the test on BT-549 breast, with UACC-257 melanoma, in the test on IGROV1 ovarian and in the test on HOP-62 NSCLC was more than 100 µM throughout. Moreover, the TGI with SR leukemia, in the test on LOX IMVI melanoma, in the test on UACC-62 melanoma, in the test on SK-OV-3 ovarian, with TK-10 renal and with T-47D breast was more than 100 µM in each case. In the test on MALME-3M melanoma, this compound displayed a TGI of more than 100 µM.

As for `COc1nc2ncc([C@@H](OC(C)=O)[C@@H](COC(C)=O)OC(C)=O)nc2c(=O)n1C`, the TGI with KM12 colon, in the test with COLO 205 colon, with BT-549 breast, in the test with UACC-257 melanoma, in the test on IGROV1 ovarian and with HOP-62 NSCLC was more than 100 µM throughout. The TGI with SR leukemia, in the test on LOX IMVI melanoma, in the test on UACC-62 melanoma, in the test with SK-OV-3 ovarian, in the test on TK-10 renal and with T-47D breast was more than 100 µM each time. Further, in the test on MALME-3M melanoma, the TGI is more than 100 µM.

As for `Nc1nc(N)c2cc(-c3cc4ccccc4[nH]3)ccc2n1`, the TGI in the test on KM12 colon was 43.5 µM; in the test on COLO 205 colon it was 24 µM; in the test on BT-549 breast, 80.3 µM; in the test on UACC-257 melanoma it was 35.1 µM; with IGROV1 ovarian, 33.4 µM; with HOP-62 NSCLC, more than 100 µM. Also, the TGI is 60.5 µM in the test with SR leukemia; 36.3 µM in the test on LOX IMVI melanoma; 33.9 µM in the test on UACC-62 melanoma; more than 100 µM in the test on SK-OV-3 ovarian; 37.2 µM in the test on TK-10 renal; 21.7 µM in the test with T-47D breast. In addition, in the test on MALME-3M melanoma, the TGI was 30.4 µM.

Take `CC1=C[C@H](C[C@]2(C)c3c(c4c(C)cccc4oc3=O)O[C@@H]2C)OC1=O`: the TGI in the test on KM12 colon is more than 100 µM; in the test with COLO 205 colon, more than 100 µM; in the test with BT-549 breast, 74.7 µM; with UACC-257 melanoma it was more than 100 µM; in the test on IGROV1 ovarian, more than 100 µM; with HOP-62 NSCLC, more than 100 µM. The TGI with SR leukemia is 61.3 µM; with LOX IMVI melanoma it was more than 100 µM; in the test with UACC-62 melanoma, more than 100 µM; in the test on SK-OV-3 ovarian it was more than 100 µM; in the test on TK-10 renal it was more than 100 µM; in the test on T-47D breast, more than 100 µM. In addition, the TGI in the test on MALME-3M melanoma is more than 100 µM.

As to `C[N+](C)(N)Cc1nc(-c2ccc(Cl)cc2)no1`, the TGI with KM12 colon, in the test on COLO 205 colon, in the test with BT-549 breast, in the test with UACC-257 melanoma, with IGROV1 ovarian and in the test with HOP-62 NSCLC was more than 100 µM each time. Also, the TGI in the test with SR leukemia, in the test with LOX IMVI melanoma, in the test with UACC-62 melanoma, in the test with SK-OV-3 ovarian, in the test on TK-10 renal and in the test with T-47D breast was more than 100 µM throughout. This compound had a TGI in the test with MALME-3M melanoma of more than 100 µM.

With `O=C1C(NS(=O)(=O)c2ccccc2)=C(n2ccnc2)C(=O)c2ccccc21`, the concentration for total growth inhibition (TGI) in the test on KM12 colon, in the test with COLO 205 colon, in the test with BT-549 breast, with UACC-257 melanoma, in the test on IGROV1 ovarian and with HOP-62 NSCLC was more than 100 µM in each case. Moreover, the TGI in the test with SR leukemia, with LOX IMVI melanoma, with UACC-62 melanoma, in the test with SK-OV-3 ovarian, in the test with TK-10 renal and in the test with T-47D breast was more than 100 µM each time. Besides, the TGI in the test with MALME-3M melanoma is more than 100 µM.

For `COc1cc2ncnc(Nc3cccc(Br)c3)c2cc1OC`, the TGI in the test on KM12 colon was 16.1 µM; with COLO 205 colon, 20.8 µM; in the test on BT-549 breast, more than 50.8 µM; in the test on UACC-257 melanoma it was more than 40.9 µM; in the test on IGROV1 ovarian, 29.6 µM; in the test with HOP-62 NSCLC, more than 41.2 µM. Further, the TGI with SR leukemia was more than 31.6 µM; with LOX IMVI melanoma, 10.2 µM; with UACC-62 melanoma, 17.5 µM; in the test with SK-OV-3 ovarian, 19 µM; in the test with TK-10 renal it was 13.5 µM; in the test with T-47D breast it was 48 µM. Further, in the test with MALME-3M melanoma, the TGI was 32.2 µM.

The values above are taken from PubChem BioAssay (NCI).
